Measurements: patent publication US12673945B2, “3-((8-((1H-pyrazol-4-yl)amino)imidazo[1,2-a]pyridin-3-yl)ethinyl)-n-phenylbenzamide derivative, method for preparing same, and pharmaceutical composition containing same as active ingredient for prevention or treatment of cancer” (DAEGU-GYEONGBUK MEDICAL INNOVATION FOUNDATION, priority 2020, dated 2026)

Key:
Assay type in all cases: cell-based
Parental (Ba/F3) = assay: Ba/F3 cell proliferation inhibition; settings: BaF3; 72 hours, Cell Counting Kit-8
Method in brief: (§1)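 GI50 derived from CCK-8 absorbance at 450 nm (2 h development), expressed relative to DMSO vehicle. Cells (parental or T315I-Bcr-Abl Ba/F3, 1×10^4/well) received nine threefold-diluted concentrations, final 0 to 10 μM, for 72 h at 37 °C.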

T315I-Bcr-Abl (Ba/F3) = assay: Ba/F3 cell proliferation inhibition; settings: BaF3; 72 hours, Cell Counting Kit-8
Method in brief: as §1

TCCS cells = assay: human CML cell proliferation inhibition; settings: 72 hours, Cell Counting Kit-8
Method in brief: (§2)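 Growth inhibition over 72 h at 37 °C in Bcr-Abl (TCCS, KOPM28) or T315I-Bcr-Abl (T315I-TCCS, T315I-KOPM28) human CML cells, 1×10^4 cells/well. Nine 5-fold dilutions gave final 0 to 10 μM, with DMSO as control. GI50 was derived from CCK-8 A450 as percent of vehicle.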

T315I-KOPM28 cells = assay: human CML cell proliferation inhibition; settings: 72 hours, Cell Counting Kit-8
Method in brief: as §2

KOPM28 cells = assay: human CML cell proliferation inhibition; settings: 72 hours, Cell Counting Kit-8
Method in brief: as §2

T315I-TCCS cells = assay: human CML cell proliferation inhibition; settings: 72 hours, Cell Counting Kit-8
Method in brief: as §2

SMILES | GI50 (T315I-Bcr-Abl (Ba/F3)) [nM] | GI50 (Parental (Ba/F3)) [nM] | GI50 (TCCS cells) [nM] | GI50 (T315I-KOPM28 cells) [nM] | GI50 (KOPM28 cells) [nM] | GI50 (T315I-TCCS cells) [nM]
Cc1cc(F)c(C(=O)Nc2cc(Cn3cncn3)cc(C(F)(F)F)c2)cc1C#Cc1cnc2c(Nc3cn[nH]c3)cccn12 [Example 108, N-(3-((1H-1,2,4-triazol-1-yl)methyl)-5-(trifluoromethyl)phenyl)-5-((8-((1H-pyrazol-4-yl)amino)imidazo[1,2-a]pyridin-3-yl)ethynyl)-2-fluoro-4-methylbenzamide] | 50 to 500 | > 5000 | < 10 | > 100 | < 10 | 100
Cc1cc(F)c(C(=O)Nc2cc(OCCN(C)C)cc(C(F)(F)F)c2)cc1C#Cc1cnc2c(Nc3cn[nH]c3)cccn12 [Example 102, 5-((8-((1H-pyrazol-4-yl)amino)imidazo[1,2-a]pyridin-3-yl)ethynyl)-N-(3-(2-(dimethylamino)ethoxy)-5-(trifluoromethyl)phenyl)-2-fluoro-4-methylbenzamide] | 50 to 500 | 500 to 5000 | < 10 | > 100 | < 10 | 100
Cc1cc(F)c(C(=O)Nc2cc(N(C)CCN(C)C)cc(C(F)(F)F)c2)cc1C#Cc1cnc2c(Nc3cnn(C)c3)cccn12 [Example 48, N-(3-((2-(dimethylamino)ethyl)(methyl)amino)-5-(trifluoromethyl)phenyl)-2-fluoro-4-methyl-5-((8-((1-methyl-1H-pyrazol-4-yl)amino)imidazo[1,2-a]pyridin-3-yl)ethynyl)benzamide] | 50 to 500 | > 5000 | < 10 | > 100 | < 10 | 100
Cc1cc(F)c(C(=O)Nc2cc(N(C)CCN(C)C)cc(C(C)(C)C#N)c2)cc1C#Cc1cnc2c(Nc3cn[nH]c3)cccn12 [Example 81, 5-((8-((1H-pyrazol-4-yl)amino)imidazo[1,2-a]pyridin-3-yl)ethynyl)-N-(3-(2-cyanopropan-2-yl)-5-((2-(dimethylamino)ethyl)(methyl)amino)phenyl)-2-fluoro-4-methylbenzamide] | 50 to 500 | 500 to 5000 | < 10 | > 100 | < 10 | 100
Cc1cc(F)c(C(=O)Nc2cc(CN3CCN(C)C(=O)C3)cc(C(F)(F)F)c2)cc1C#Cc1cnc2c(Nc3cnn(C)c3)cccn12 [Example 71, 2-fluoro-4-methyl-5-((8-((1-methyl-1H-pyrazol-4-yl)amino)imidazo[1,2-a]pyridin-3-yl)ethynyl)-N-(3-((4-methyl-3-oxopiperazin-1-yl)methyl)-5-(trifluoromethyl)phenyl)benzamide] | 50 to 500 | > 5000 | < 10 | > 100 | < 10 | 100
Cc1cc(F)c(C(=O)Nc2cc(CN3CCN(CC(F)(F)F)CC3)cc(C(C)(C)C#N)c2)cc1C#Cc1cnc2c(Nc3cnn(C)c3)cccn12 [Example 32, N-(3-(2-cyanopropan-2-yl)-5-((4-(2,2,2-trifluoroethyl)piperazin-1-yl)methyl)phenyl)-2-fluoro-4-methyl-5-((8-((1-methyl-1H-pyrazol-4-yl)amino)imidazo[1,2-a]pyridin-3-yl)ethynyl)benzamide] | 50 to 500 | > 5000 | < 10 | > 100 | < 10 | > 100
Cc1cc(F)c(C(=O)Nc2cc(N3CCN(C)C(=O)C3)cc(C(F)(F)F)c2)cc1C#Cc1cnc2c(Nc3cnn(C)c3)cccn12 [Example 49, 2-fluoro-4-methyl-5-((8-((1-methyl-1H-pyrazol-4-yl)amino)imidazo[1,2-a]pyridin-3-yl)ethynyl)-N-(3-(4-methyl-3-oxopiperazin-1-yl)-5-(trifluoromethyl)phenyl)benzamide] | 50 to 500 | 500 to 5000 | < 10 | 100 | < 10 | < 10
Cc1cc(F)c(C(=O)Nc2cc(-c3ccncc3)cc(C(C)(C)C#N)c2)cc1C#Cc1cnc2c(Nc3cn[nH]c3)cccn12 [Example 78, 5-((8-((1H-pyrazol-4-yl)amino)imidazo[1,2-a]pyridin-3-yl)ethynyl)-N-(3-(2-cyanopropan-2-yl)-5-(pyridin-4-yl)phenyl)-2-fluoro-4-methylbenzamide] | 50 to 500 | > 5000 | < 10 | > 100 | 100 | > 100

Now from value to compound, other results behind:

GI50 (T315I-Bcr-Abl (Ba/F3)) [nM] | SMILES | GI50 (Parental (Ba/F3)) [nM] | GI50 (TCCS cells) [nM] | GI50 (T315I-KOPM28 cells) [nM] | GI50 (KOPM28 cells) [nM] | GI50 (T315I-TCCS cells) [nM]
< 50 | Cc1cc(F)c(C(=O)Nc2ccc(CN3CCN(C)CC3)c(C(C)(C)C#N)c2)cc1C#Cc1cnc2c(Nc3cnn(C)c3)cccn12 [Example 39, N-(3-(2-cyanopropan-2-yl)-4-((4-methylpiperazin-1-yl)methyl)phenyl)-2-fluoro-4-methyl-5-((8-((1-methyl-1H-pyrazol-4-yl)amino)imidazo[1,2-a]pyridin-3-yl)ethynyl)benzamide] | > 5000 | < 10 | 100 | < 10 | 100
50 to 500 | Cc1cc(F)c(C(=O)Nc2cc(CN3CCC(C(F)(F)F)CC3)cc(C(C)(C)C#N)c2)cc1C#Cc1cnc2c(Nc3cnn(C)c3)cccn12 [Example 31, N-(3-(2-cyanopropan-2-yl)-5-((4-(trifluoromethyl)piperidin-1-yl)methyl)phenyl)-2-fluoro-4-methyl-5-((8-((1-methyl-1H-pyrazol-4-yl)amino)imidazo[1,2-a]pyridin-3-yl)ethynyl)benzamide] | > 5000 | < 10 | > 100 | < 10 | > 100
50 to 500 | Cc1cc(F)c(C(=O)Nc2cc(CN3CCN(S(C)(=O)=O)CC3)cc(C(C)(C)C#N)c2)cc1C#Cc1cnc2c(Nc3cnn(C)c3)cccn12 [Example 34, N-(3-(2-cyanopropan-2-yl)-5-((4-(methylsulfonyl)piperazin-1-yl)methyl)phenyl)-2-fluoro-4-methyl-5-((8-((1-methyl-1H-pyrazol-4-yl)amino)imidazo[1,2-a]pyridin-3-yl)ethynyl)benzamide] | > 5000 | < 10 | > 100 | < 10 | 100
50 to 500 | Cc1cc(F)c(C(=O)Nc2ccc(CN3CCC(N(C)C)C3)c(C(C)(C)C#N)c2)cc1C#Cc1cnc2c(Nc3cnn(C)c3)cccn12 (stereo not drawn) [Example 41, N-(3-(2-cyanopropan-2-yl)-4-((3-(dimethylamino)pyrrolidin-1-yl)methyl)phenyl)-2-fluoro-4-methyl-5-((8-((1-methyl-1H-pyrazol-4-yl)amino)imidazo[1,2-a]pyridin-3-yl)ethynyl)benzamide] | 500 to 5000 | < 10 | > 100 | < 10 | > 100
50 to 500 | Cc1cc(F)c(C(=O)Nc2cc(CN3CCCN(C)CC3)cc(C(C)(C)C#N)c2)cc1C#Cc1cnc2c(Nc3cnn(C)c3)cccn12 [Example 30, N-(3-(2-cyanopropan-2-yl)-5-((4-methyl-1,4-diazepan-1-yl)methyl)phenyl)-2-fluoro-4-methyl-5-((8-((1-methyl-1H-pyrazol-4-yl)amino)imidazo[1,2-a]pyridin-3-yl)ethynyl)benzamide] | 500 to 5000 | < 10 | > 100 | < 10 | 100
50 to 500 | Cc1cc(F)c(C(=O)Nc2cc(CN3CCOCC3)cc(C(C)(C)C#N)c2)cc1C#Cc1cnc2c(Nc3cnn(C)c3)cccn12 [Example 28, N-(3-(2-cyanopropan-2-yl)-5-(morpholinomethyl)phenyl)-2-fluoro-4-methyl-5-((8-((1-methyl-1H-pyrazol-4-yl)amino)imidazo[1,2-a]pyridin-3-yl)ethynyl)benzamide] | > 5000 | < 10 | > 100 | < 10 | > 100
< 50 | Cc1cc(F)c(C(=O)Nc2cc(CN3CCN(CCO)CC3)cc(C(C)(C)C#N)c2)cc1C#Cc1cnc2c(Nc3cnn(C)c3)cccn12 [Example 10, N-(3-(2-cyanopropan-2-yl)-5-((4-(2-hydroxyethyl)piperazin-1-yl)methyl)phenyl)-2-fluoro-4-methyl-5-((8-((1-methyl-1H-pyrazol-4-yl)amino)imidazo[1,2-a]pyridin-3-yl)ethynyl)benzamide] | 500 to 5000 | < 10 | 100 | < 10 | 100
50 to 500 | Cc1cc(F)c(C(=O)Nc2cc(Cn3ccnc3)cc(C(C)(C)C#N)c2)cc1C#Cc1cnc2c(Nc3cnn(C)c3)cccn12 [Example 37, N-(3-((1H-imidazol-1-yl)methyl)-5-(2-cyanopropan-2-yl)phenyl)-2-fluoro-4-methyl-5-((8-((1-methyl-1H-pyrazol-4-yl)amino)imidazo[1,2-a]pyridin-3-yl)ethynyl)benzamide] | > 5000 | < 10 | 100 | < 10 | 100
500 to 5000 | Cc1cc(F)c(C(=O)Nc2ccc(CN3CC(OC(C)C)C3)c(C(F)(F)F)c2)cc1C#Cc1cnc2c(Nc3cnn(C)c3)cccn12 [Example 62, 2-fluoro-N-(4-((3-isopropoxyazetidin-1-yl)methyl)-3-(trifluoromethyl)phenyl)-4-methyl-5-((8-((1-methyl-1H-pyrazol-4-yl)amino)imidazo[1,2-a]pyridin-3-yl)ethynyl)benzamide] | > 5000 | < 10 | > 100 | < 10 | > 100
